Source: BigSolDB 2.1

O=C(O)CCCC(=O)O
Settings | solubility (mole fraction)
in cyclohexanone, 294.15 K | 0.153
in cyclohexanone, 298.45 K | 0.167
in cyclohexanone, 302.45 K | 0.181
in cyclohexanone, 307.15 K | 0.2
in cyclohexanone, 312.45 K | 0.238
in cyclohexanone, 317.05 K | 0.27
in cyclohexanone, 321.75 K | 0.309
in cyclohexanone, 326.35 K | 0.351
in cyclohexanone, 331.55 K | 0.401
in cyclohexanone, 335.25 K | 0.437
in propionic acid, 289.55 K | 0.238
in propionic acid, 294.15 K | 0.272
in propionic acid, 302.15 K | 0.337
in propionic acid, 305.65 K | 0.365
in propionic acid, 309.15 K | 0.395
in propionic acid, 312.85 K | 0.42
in propionic acid, 316.15 K | 0.447
in propionic acid, 319.65 K | 0.474
in propionic acid, 323.65 K | 0.509
in propionic acid, 332.15 K | 0.587
in ε-caprolactone, 286.25 K | 0.124
in ε-caprolactone, 291.55 K | 0.153
in ε-caprolactone, 296.15 K | 0.183
in ε-caprolactone, 300.25 K | 0.214
in ε-caprolactone, 304.45 K | 0.245
in ε-caprolactone, 308.55 K | 0.274
in ε-caprolactone, 312.45 K | 0.304
in ε-caprolactone, 316.05 K | 0.334
in ε-caprolactone, 320.25 K | 0.364
in ε-caprolactone, 325.25 K | 0.402
